What follows are compounds tested against T1, Menin-MLL (Homo sapiens, UniProt O00255) (assay: Inhibitory activity against Menin-MLL binding (fluorescence polarization)). Conditions: Menin-MLL IC50, fluorescence polarization; 150 nM His-Menin, 15 nM FITC-MLL; 25°C for 60 min.
T1 construct: His-Menin (M1-L615 end); purchased BIORTUS BP9210
T1 sequence (O00255 1-615 isoform O00255-1): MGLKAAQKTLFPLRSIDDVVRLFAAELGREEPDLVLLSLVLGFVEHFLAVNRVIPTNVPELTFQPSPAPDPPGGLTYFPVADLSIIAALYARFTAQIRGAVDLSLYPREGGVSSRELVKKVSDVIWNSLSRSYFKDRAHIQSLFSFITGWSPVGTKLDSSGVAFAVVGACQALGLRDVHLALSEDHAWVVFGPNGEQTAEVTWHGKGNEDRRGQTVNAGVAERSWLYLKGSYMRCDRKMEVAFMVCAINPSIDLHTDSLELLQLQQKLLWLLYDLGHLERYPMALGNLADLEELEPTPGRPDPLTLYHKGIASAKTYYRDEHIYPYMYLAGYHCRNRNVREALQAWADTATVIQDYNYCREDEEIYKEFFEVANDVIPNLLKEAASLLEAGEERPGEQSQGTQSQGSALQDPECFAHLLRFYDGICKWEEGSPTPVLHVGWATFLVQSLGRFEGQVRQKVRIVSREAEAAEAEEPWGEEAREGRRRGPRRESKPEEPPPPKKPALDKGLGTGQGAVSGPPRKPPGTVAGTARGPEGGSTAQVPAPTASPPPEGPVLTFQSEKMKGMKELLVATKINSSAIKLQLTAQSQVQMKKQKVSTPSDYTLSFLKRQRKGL
Summary of the method: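 His-Menin (M1-L615, 150 nM) preincubated with compound 15 min at 25 °C in HEPES pH 7.5, 50 mM NaCl, 1 mM DTT, 0.01% BSA, then 15 nM FITC-MLL4-43 peptide added for 60 min at 25 °C. Fluorescence polarization read; IC50 from 4-parameter logistic fit, duplicates.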

Row | Structure (SMILES) | IC50
1 | CCN(C(=O)c1cc(F)ccc1-c1cc(C2CN(C(=O)C3NC4CCC3CC4)C2)cn2c(C)nc(F)c12)C(C)C [Example 107, N-ethyl-5-fluoro-2-(1-fluoro-3-methyl-6-{1-[(1R,3S,4S)-2-azabicyclo[2.2.2]octan-3-carbonyl]azacyclobutan-3-yl}imidazo[1,5-a]pyridin-8-yl)-N-(isopropyl)benzamide] | 4.5 nM
2 | CCN(C(=O)c1cc(F)ccc1-c1cc(C2CCN(C[C@H]3CC[C@@H](NS(=O)(=O)CC)CC3)C2)cc2cncn12)C(C)C (mixture of isomers) [Example 26, N-ethyl-5-fluoro-N-isopropyl-2-[7-(1-{[(1s,4s)-4-ethanesulfonamidocyclohexyl]methyl}pyrrolidin-3-yl)imidazo[1,5-a]pyridin-5-yl]benzamide] | 44.5 nM
3 | CCN(C(=O)c1cc(F)ccc1-c1cc(C2CCN(C[C@]3(F)CC[C@@H](NS(=O)(=O)CC)CC3)C2)cn2c(C)ncc12)C(C)C (stereo partly drawn) [Compound 52, N-ethyl-5-fluoro-2-[3-methyl-6-(1-{[(1s,4s)-4-ethanesulfonamido-1-fluorocyclohexyl]methyl}pyrrolidin-3-yl)imidazo[1,5-a]pyridin-8-yl]-N-(isopropyl)benzamide] | 28.5 nM

Same assay, conditions: fluorescence polarization; 150 nM His-Menin, 15 nM FITC-MLL; 25°C for 60 min; read-out: Menin-MLL IC50

Row | Structure (SMILES) | IC50
4 | Cc1nc(F)c2c(-c3ccc(F)cc3C(=O)N3CCOC[C@H]3C)cc(C3CN([C@H](CCCN4CCN(S(C)(=O)=O)CC4)C(C)C)C3)cn12 [Example 365] | 8.5 nM
5 | Cc1nc(F)c2c(-c3ccc(F)cc3C(=O)N3[C@H](C)COC[C@H]3C)cc(CC3CN(CC4CCOCC4)C3)cn12 [Example 229] | 57 nM
6 | CCN(C(=O)c1cc(F)ccc1-c1cc(C2CCN(CC3CCCCC3)C2)cn2cncc12)C(C)C (stereo not drawn) [Example 44] | 29.5 nM
7 | CCN(C(=O)c1cc(F)ccc1-c1cc(N2CCN(C(=O)[C@@H]3CC4CCCCC4N3)CC2)cn2c(C)nc(Cl)c12)C(C)C (stereo partly drawn) [Example 112] | 24 nM
8 | Cc1nc(F)c2c(-c3ccc(F)cc3C(=O)N3[C@H](C)COC[C@H]3C)cc(C3CN(CC4CCN(C(=O)c5cnoc5)CC4)C3)cn12 [Example 233] | 42 nM
9 | Cc1nc(F)c2c(-c3ccc(F)cc3C(=O)N3CCOC[C@H]3C)cc(C3CN([C@@H](CN4CCNCC4)C(C)C)C3)cn12 [Example 367-1, (3R)-4-[5-fluoro-2-(1-fluoro-3-methyl-6-{1-[(2R)-3-methyl-1-(piperazin-1-yl)butan-2-yl]azacyclobutan-3-yl}imidazo[1,5-a]pyridin-8-yl)benzoyl]-3-methylmorpholine] | 3.9 nM
10 | CCN(C(=O)c1cc(F)ccc1-c1cc(C2CCN(CC3CCC(NC(=O)OC(C)(C)C)CC3)C2)cc2cncn12)C(C)C (stereo not drawn) [Example 24, N-(4-{[3-(5-{2-[ethyl(isopropyl)aminoformyl]-4-fluorophenyl}imidazo[1,5-a]pyridin-7-yl)pyrrolidin-1-yl]methyl}cyclohexyl)tert-butyl carbamate] | 23 nM
11 | CC(=O)N1CCN(CCC[C@H](C(C)C)N2CC(c3cc(-c4ccc(F)cc4C(=O)N4CCOC[C@H]4C)c4c(F)nc(C)n4c3)C2)CC1(C)C [Example 339] | 13 nM
12 | CC(=O)N1CCC(CN2CC(c3cc(-c4ccc(F)cc4C(=O)N4CCOC[C@H]4C)c4cnn(C)c4c3)C2)CC1 [Example 177] | 217 nM
13 | Cc1nc(F)c2c(-c3ccc(F)cc3C(=O)N3CCOC[C@H]3C)cc(C3CN([C@@H](CO[C@@H]4CCCN(C)C4)C(C)C)C3)cn12 [Example 297-2, (3R)-4-[5-fluoro-2-(1-fluoro-3-methyl-6-{1-[(2R)-3-methyl-1-{[(3R)-1-methylpiperidin-3-yl]oxy}butan-2-yl]azacyclobutan-3-yl}imidazo[1,5-a]pyridin-8yl)benzoyl]-3-methylmorpholine] | 13.5 nM

The remaining lines, values ahead:

Row | IC50 | Structure (SMILES)
14 | 2.6 nM | CCN(C(=O)c1cc(F)ccc1-c1cc(C2CN([C@H](CC[C@@H]3COCCN3)C(C)C)C2)cn2c(C)ncc12)C(C)C [Example 449-1, N-ethyl-5-fluoro-2-(3-methyl-6-{1-[(3R)-4-methyl-1-[(3R)-morpholin-3-yl]pentan-3-yl]azacyclobutan-3-yl}imidazo[1,5-a]pyridin-8-yl)-N-(isopropyl)benzamide]
15 | 9.4 nM | CCN(C(=O)c1cc(F)ccc1-c1cc(C2CN(C(CCO)C(C)C)C2)cn2c(C)ncc12)C(C)C (stereo not drawn) [Example 455, N-ethyl-5-fluoro-2-{6-[1-(1-hydroxyl-4-methylpentan-3-yl)azacyclobutan-3-yl]-3-methylimidazo[1,5-a]pyridin-8-yl}-N-(isopropyl)benzamide]
16 | 3.7 nM | CCN(C(=O)c1cc(F)ccc1-c1cc(C2CN([C@H](CCCN3CCC(OCCO)CC3)C(C)C)C2)cc2c1cnn2C)C(C)C [Example 401-2]
17 | 110 nM | CCN(C(=O)c1cc(F)ccc1-c1cc(C2CN([C@@H](CCCN3CCC(OC)CC3)C(C)C)C2)cc2c1cnn2C)C(C)C [Example 399-1, N-ethyl-5-fluoro-2-(6-{1-[(3S)-6-(4-methoxypiperidin-1-yl)-2-methylhexan-3-yl]azacyclobutan-3-yl}-1-methyl-1H-indazol-4-yl)-N-(isopropyl)benzamide]
18 | 205 nM | Cc1nc(F)c2c(-c3ccc(F)cc3C(=O)N3CCOC[C@H]3C)cc(C3CN([C@@H](CCCN4CCOCC4)C(C)C)C3)cn12 [Example 199-2, (3R)-4-[5-fluoro-2-(1-fluoro-3-methyl-6-{1-[(3S)-2-methyl-6-(morpholin-4-yl)hexan-3-yl]azacyclobutan-3-yl}imidazo[1,5-a]pyridin-8-yl)benzoyl]-3-methylmorpholine]
19 | 110 nM | CCN(C(=O)c1cc(F)ccc1-c1cc(C2CN([C@@H](CN3CCS(=O)(=O)CC3)C(C)C)C2)cn2c(C)ncc12)C(C)C [Example 441-2, 2-(6-{1-[(2R)-1-(1,1-dioxo-thiomorpholin-4-yl)-3-methylbutan-2-yl]azacyclobutan-3-yl}-3-methylimidazo[1,5-a]pyridin-8-yl)-N-ethyl-5-fluoro-N-(isopropyl)benzamide]
20 | 80.5 nM | CCN(C(=O)c1cc(F)ccc1-c1cc(N2CCN(C(=O)[C@@H]3CCCNC3)CC2)cn2c(C)ncc12)C(C)C [Example 124]
21 | 107 nM | CCN(C(=O)c1cc(F)ccc1-c1cc(N2CCC(NCC3(F)CCC(NS(=O)(=O)CC)CC3)CC2)cn2c(C)ncc12)C(C)C (stereo not drawn) [Compound 57, 2-[6-(4-{[(4-ethanesulfonamido-1-fluorocyclohexyl)methyl]amino}piperidin-1-yl)-3-methylimidazo[1,5-a]pyridin-8-yl]-N-ethyl-5-fluoro-N-(isopropyl)benzamide]
22 | 39 nM | CCN(C(=O)c1cc(F)ccc1-c1cc(C2CN([C@H](C)C3CCN(C(=O)CO)CC3)C2)cn2c(C)nc(F)c12)C(C)C [Example 284-1]
23 | 40 nM | CCN(C(=O)c1cc(F)ccc1-c1cc(C2CN([C@@H](CC[C@H]3COCCN3)C(C)C)C2)cn2c(C)ncc12)C(C)C [Example 457-1, N-ethyl-5-fluoro-2-(3-methyl-6-{1-[(3S)-4-methyl-1-[(3S)-morpholin-3-yl]pentan-3-yl]azacyclobutan-3-yl}imidazo[1,5-a]pyridin-8-yl)-N-(isopropyl)benzamide]

These compounds were tested on MOLM-13 (carrying MLL-AF9) (assay: Inhibition of proliferation of human tumor cells (Alamar Blue, 7 days), MOLM-13). Conditions: Homo sapiens, 168 h, MOLM-13 cells (carrying MLL-AF9), method calls the value GI50.
Assay type: cell-based
Excerpt: Experimental Example 2: Evaluation of Inhibitory Activity of Compounds Against Proliferation of Human Tumor Cells
• Human acute lymphoblastic leukemia cells MV-4-11, purchased from American Type Culture Collection, Catalog Number: CRL-9591; • Human acute myeloid leukemia cells MOLM-13, purchased from COBIOER BIOSCIENCES CO., LTD, Catalog Number: CBP60678; • Human acute myeloid leukemia cells KG-1a, purchased from American Type Culture Collection, Catalog Number: CCL-246.1; • Inverted Microscope, purchased from Olympus Tokyo; • Countess™ Automated Cell Counter, purchased from Invitrogen, Model: C10281; and • Multilabel Reader, purchased from Bio-Tek, Model: Synergy HT.
MV-4-11 cells were cultured in an IMDM medium containing 10% fetal bovine serum, KG-a cells were cultured in an IMDM medium containing 20% fetal bovine serum, or MOLM-13 cells were cultured in an RPMI-1640 medium containing 20% fetal bovine serum, each supplemented with 100 U·mL^-1 penicillin and 100 µg·mL^-1 streptomycin. These cells were cultured at 37°C with 5% CO2. The suspensions of individual cell lines were prepared in their respective media and seeded into 96-well plates at a density of 4,000 cells/well for MV-4-11 and MOLM-13 cells, or 3,000 cells/well for KG-1a cells. On the day of the experiment, a compound stock solution was diluted in a 3-fold or 4-fold gradient using DMSO. Each gradient-diluted stock solution was then further diluted 250-fold with a complete medium to prepare a series of working solutions at different concentrations. Subsequently, 100 µL of working solution (containing a 2-fold concentration series of the test compound) was added to each well, with duplicate wells set up for each concentration.
Seven days after compound addition (on Day 7), an Alamar Blue assay reagent (MCE, HY-111391 / CS-0040317) was added to measure the fluorescence intensity in each well. Wells containing the cells in the growth medium supplemented with 0.1% DMSO (Day 7) served as high-read control wells. The readouts from the wells containing the cells in the growth medium supplemented with 0.1% DMSO on the day of compound addition (Day 0) served as low-reading control well. GraphPad Prism software was used to calculate the concentration required to inhibit 50% of cell proliferation (GI50), which serves as a cell proliferation inhibition activity index.

Row | IC50 | Structure (SMILES)
24 | 6.1 nM | CCN(C(=O)c1cc(F)ccc1-c1cc(C2CN([C@H](CC[C@@H]3COCCN3)C(C)C)C2)cn2c(C)ncc12)C(C)C [Example 449-1, N-ethyl-5-fluoro-2-(3-methyl-6-{1-[(3R)-4-methyl-1-[(3R)-morpholin-3-yl]pentan-3-yl]azacyclobutan-3-yl}imidazo[1,5-a]pyridin-8-yl)-N-(isopropyl)benzamide]
25 | 14 nM | Cc1nc(F)c2c(-c3ccc(F)cc3C(=O)N3CCOC[C@H]3C)cc(C3CN([C@H](CCCN4CCN(S(C)(=O)=O)CC4)C(C)C)C3)cn12 [Example 365]
26 | 69 nM | CCN(C(=O)c1cc(F)ccc1-c1cc(C2CN(C(CCO)C(C)C)C2)cn2c(C)ncc12)C(C)C (stereo not drawn) [Example 455, N-ethyl-5-fluoro-2-{6-[1-(1-hydroxyl-4-methylpentan-3-yl)azacyclobutan-3-yl]-3-methylimidazo[1,5-a]pyridin-8-yl}-N-(isopropyl)benzamide]
27 | 29 nM | CCN(C(=O)c1cc(F)ccc1-c1cc(C2CN([C@H](CCCN3CCC(OCCO)CC3)C(C)C)C2)cc2c1cnn2C)C(C)C [Example 401-2]

Source: patent publication EP4782453A1 (Beyang Therapeutics Co., Ltd., priority 2023, dated 2025)
